In patent US20100240040A1, “METHOD FOR SCREENING FOR SELECTIVE MODULATOR OF THE NF-KB PATHWAY ACTIVATION” (INSTITUT PASTEUR, priority 2007, published 2010):
Where a SMILES comes first, the peptide text is derived from it.

How the values were obtained:
[1] = target: T1, spCC2-LZ (MOD of NEMO) (Mus musculus, UniProt O88522); experiment: Fluorescence anisotropy binding of labelled peptide to spCC2-LZ; conditions: labelled peptide 10 μM, increasing spCC2-LZ; read-out: dissociation constant for spCC2-LZ
T1 construct: spCC2-LZ, synthetic polypeptide subdomain CC2-LZ; made in house; host or cells: chemical synthesis
T1 sequence (O88522 253-336): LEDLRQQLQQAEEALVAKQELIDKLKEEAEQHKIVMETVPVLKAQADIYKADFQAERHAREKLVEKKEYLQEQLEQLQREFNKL
Description: Anisotropy measurements were performed with a QuantaMaster® fluorometer (PTI), equipped with polarizing filters for excitation and emission, and using a photomultiplier tube in the L-configuration. All experiments were carried out in a microcuvette (60 μl) at 22° C., with excitation and emission wavelengths at 495 and 513 nm. The band pass of the excitation and emission wavelengths was 2 and 4 nm, respectively. Steady-state fluorescence anisotropy, expressed as millianisotropy units was measured as described Agou et al., 2004a. All measurements were carried out in a 20 mM isoionic buffer pH 8 (10 mM acetic acide, 10 mM MES, 20 mM Tris), containing 20 mM KCl. Each data point is the result of 20 recording taken over a 2-min period. To analyse whether DR NLM binds the MOD of NEMO, fluorescent labelled BA-DR NLM (10 μM) was incubated with an increasing concentrations of spCC2-LZ and the complex formation was monitored by fluorescence polarization (P) and results are expressed as anisotropy (A) according to the formula A=2P/(3-P). The concentration of spCC2-LZ was determining by amino acid analysis (Vinolo et al; 2006). Data points were fitted to the binding isotherm equation which gives a dissociation constant of 17 μM.

[2] = tested on: AP1 pathway; experiment: AP1-luc reporter assay in Jurkat cells stimulated with PMA and ionomycin; assay type: cell-based, human; conditions: 5 μM peptide, T-lymphocytes
Description: (§1) Jurkat T cells (clone 20) were transiently transfected by a DEAE-dextran method with a reporter plasmid containing the luciferase under the control of a promoter inducible by the ERK and p38 pathway (SRE-luc; Courtois et al., 1997, Mol. Cell. Biol, 17:1441-1449), the NF-AT pathway or the API pathway (respectively NF-AT-luc and AP1-luc; Northrop et al., 1993, J. Biol. […]., 268:2917-2923). Briefly, cells were washed and resuspended at 10^7 cells/ml in TBS containing 0.5 mg/ml of DEAE-dextran (Pharmacia). 1 μg per 2·10^6 cells of reporter plasmid was added. After 45 min at room temperature, the cells were diluted with 10 volumes of TBS, centrifuged, and resuspended at 10^6 cells/ml in 10% FCS-RPMI. After 24 h, cells were incubated with or without 5 μM NEMO-derived peptides (BA-NLM or BA-DR NLM) for 2 h. They were stimulated or mock-stimulated with 100 ng/ml PMA and 1 μg/ml ionomycin for 5 h, and finally lysed in luciferase buffer (25 mM Tris-phosphate pH 7.8 containing 8 mM MgCl2, 1 mM DTE, 1% Triton X100, 15% glycerol). Luciferase measurement was carried out in a Berthold Luminometer.

[3] = tested on: NF-AT pathway; experiment: NF-AT-luc reporter assay in Jurkat cells stimulated with PMA and ionomycin; assay type: cell-based, human; conditions: 5 μM peptide, T-lymphocytes
Description: as §1

[4] = target: T2, Flag-NEMO (Mus musculus, UniProt O88522, A144V/E216G/P360T/S248N); experiment: Pull-down of Flag-NEMO from JM4.5.2/Flag-NEMO cells treated with Bodipy-conjugated peptides, bead fluorescence; assay type: cell-based, murine; conditions: 20 μM peptide, 4 h
T2 construct: expressed in transfected cells
T2 sequence (O88522 with tags, fused parts or gaps A144V/E216G/S248N/P360T): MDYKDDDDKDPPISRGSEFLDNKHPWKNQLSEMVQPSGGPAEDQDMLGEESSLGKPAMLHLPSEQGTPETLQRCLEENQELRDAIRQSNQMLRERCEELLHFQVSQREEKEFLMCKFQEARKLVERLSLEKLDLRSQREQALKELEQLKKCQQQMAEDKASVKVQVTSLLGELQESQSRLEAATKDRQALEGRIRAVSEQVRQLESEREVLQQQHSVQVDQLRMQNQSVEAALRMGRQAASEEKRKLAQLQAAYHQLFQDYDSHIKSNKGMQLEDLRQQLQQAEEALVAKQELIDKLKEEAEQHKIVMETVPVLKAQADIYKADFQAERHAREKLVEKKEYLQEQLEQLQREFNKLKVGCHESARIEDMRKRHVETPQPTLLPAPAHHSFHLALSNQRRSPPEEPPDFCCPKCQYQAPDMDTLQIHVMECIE
Description: 5·10^6 JM4.5.2/Flag-NEMO cells were seeded in 6-well plates (3 ml/well) and incubated with 20 μM of Bodipy-conjugated peptides (BA-NLM or BA-DR NLM) for 4 h at 37° C. Cells were centrifuged at 400×g for 5 min, resuspended in 200 μl of an hypotonic buffer (10 mM TrisHCl pH 7.9, 1.5 mM MgCl2, 10 mM KCl), left on ice for 20 min and lysed by several passage through a 26 G needle. Lysates were clarified at 15 000×g for 20 min and 80 μg of total proteins were incubated with 40 μl of agarose anti-Flag M2 beads for 1 h at 4° C. The Flag-NEMO protein were pulled down with the agarose anti-Flag M2 beads by centrifugation for 1 min. Beads were resuspended in 100 μl of hypotonic buffer and the fluorescence of NEMO linked peptide was read on microplate reader from SAFAS. NEMO coated beads were analyzed by Western blotting using anti-Flag M2 monoclonal antibodies to normalize the sample using the UN-SCAN-IT software. […]

[5] = Circular dichroism and gel filtration, self-association of peptides; assay type: physicochemical; conditions: peptide concentration up to 100 μM; data not shown
Description: Far-UV circular dichroism (CD) measurements were performed with an Aviv 215 spectropolarimeter with samples diluted in 10 mM NaPO4 at pH 7.
Then, unlike the LZ peptide, DR NLM peptide as well as NLM peptide are unable to self-associate. Self association of LZ peptide is described by Agou et al., 2004b.

[6] = tested on: NF-κB pathway; conditions: reported in WO 2005/027959; cited from earlier work

Kd [1]: 17 µM
peptide bound to NEMO in cells (bead fluorescence) [4]: binds specifically to NEMO
oligomeric state / self-association [5]: behave as monomer
SMILES: CC[C@H](C)[C@H](NC(=O)[C@H](CC(=O)O)NC(=O)[C@H](C)NC(=O)[C@H](CCC(N)=O)NC(=O)[C@H](C)NC(=O)[C@H](CCCCN)NC(=O)[C@H](CC(C)C)NC(C)=O)C(=O)N[C@@H](Cc1ccc(O)cc1)C(=O)N[C@@H](CCCCN)C(=O)N[C@@H](C)C(=O)N[C@@H](CCCNC(=N)N)C(=O)N[C@@H](Cc1ccccc1)C(=O)N[C@@H](CCC(N)=O)C(=O)N[C@@H](C)C(=O)N[C@@H](CCC(=O)O)C(=O)N[C@@H](CCCNC(=N)N)C(=O)N[C@@H](Cc1c[nH]cn1)C(=O)N[C@@H](C)C(=O)N[C@@H](CCCNC(=N)N)C(=O)N[C@@H](CCC(=O)O)C(=O)N[C@@H](CCCCN)C(N)=O [DR NLM] (Ac-LKAQADIYKARFQAERHAREK-NH2; N-terminus and C-terminus assumed)
effect on AP1 pathway [2]: does not abrogate
effect on NF-AT pathway [3]: does not abrogate
inhibition of NF-κB activation [6]: inhibit NF-κB activation
